Test results taken from patent US8952024B2, “Herbicidal pyrimidone derivatives” (E I du Pont de Nemours and Company, priority 2009, dated 2015).

Assays:
Assay type in all cases: in vivo
[1] = test system: barnyardgrass (Echinochloa crus-galli); test: Test A pre-/postemergence plant response
In short: (§1)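 Greenhouse pots of loam/sand received directed preemergence soil sprays or postemergence sprays (plants 2–10 cm, 1–2 leaf stage), compounds formulated in non-phytotoxic solvent with surfactant. Injury was rated visually versus untreated controls after about ten days on a 0 (no effect) to 100 (complete control) scale.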

[2] = test system: pigweed (Amaranthus retroflexus); test: Test A pre-/postemergence plant response
In short: as §1

[3] = test system: Italian ryegrass (Lolium multiflorum); test: Test B pre-/postemergence plant response; details: for Ryegrass, Italian plant response rating (0 to 100 scale): 62 g ai/ha, postemergence, 0 is no effect, 100 is complete control, 13 to 15 days; for Plant response rating, Ryegrass, Italian: Postemergence, scale 0 to 100 (0 no effect, 100 complete control)
In short: (§2)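 Each species received compound formulated in non-phytotoxic solvent with surfactant, either at planting into a loam and sand blend or as a foliar spray once plants reached 2 to 18 cm in peat-based medium. Plants stayed in the greenhouse 13 to 15 days before visual evaluation against controls, scored 0 (no effect) to 100 (complete control).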

[4] = test system: Surinam grass (Brachiaria decumbens); test: Test B pre-/postemergence plant response; details: for Plant response rating, Surinam Grass: Postemergence, scale 0 to 100 (0 no effect, 100 complete control)
In short: as §2

[5] = test system: blackgrass (Alopecurus myosuroides); test: Test B pre-/postemergence plant response; details: for Blackgrass plant response rating (0 to 100 scale): 62 g ai/ha, 0 is no effect, 13 to 15 days
In short: as §2

[6] = test system: downy bromegrass (Bromus tectorum); test: Test B pre-/postemergence plant response; details: for Bromegrass, Downy plant response rating (0 to 100 scale): 62 g ai/ha, 0 is no effect, 13 to 15 days
In short: as §2

[7] = test system: goosegrass (Eleusine indica); test: Test B pre-/postemergence plant response; details: for Goosegrass plant response rating (0 to 100 scale): 62 g ai/ha, 0 is no effect, 13 to 15 days
In short: as §2

[8] = test system: large crabgrass (Digitaria sanguinalis); test: Test B pre-/postemergence plant response; details: for Crabgrass, Large plant response rating (0 to 100 scale): 62 g ai/ha, 0 is no effect, 13 to 15 days
In short: as §2

[9] = test system: morningglory (Ipomoea coccinea); test: Test B pre-/postemergence plant response; details: for Morningglory plant response rating (0 to 100 scale): 62 g ai/ha, 0 is no effect, 13 to 15 days
In short: as §2

[10] = test system: velvetleaf (Abutilon theophrasti); test: Test B pre-/postemergence plant response; details: for Velvetleaf plant response rating (0 to 100 scale): 62 g ai/ha, postemergence, 0 is no effect, 100 is complete control, 13 to 15 days; for Plant response rating, Velvetleaf: Postemergence, scale 0 to 100 (0 no effect, 100 complete control)
In short: as §2

[11] = test system: wheat (Triticum aestivum); test: Test B pre-/postemergence plant response; details: for Wheat plant response rating (0 to 100 scale): 62 g ai/ha, postemergence, 0 is no effect, 100 is complete control, 13 to 15 days; for Plant response rating, Wheat: Postemergence, 125 g ai/ha, scale 0 to 100 (0 no effect, 100 complete control)
In short: as §2

[12] = test system: woolly cupgrass (Eriochloa villosa); test: Test B pre-/postemergence plant response; details: for Cupgrass, Woolly plant response rating (0 to 100 scale): 62 g ai/ha, 0 is no effect, 13 to 15 days
In short: as §2

[13] = test system: yellow nutsedge (Cyperus esculentus); test: Test B pre-/postemergence plant response; details: for Nutsedge, Yellow plant response rating (0 to 100 scale): 62 g ai/ha, 0 is no effect, 13 to 15 days
In short: as §2

[14] = Postemergence, 125 g ai/ha, 0 to 100 scale where 0 is no effect and 100 is complete control
[15] = Postemergence, 500 g ai/ha, 0 to 100 scale, 0 = no effect, 100 = complete control, approx. ten days
[16] = Preemergence, 125 g ai/ha, 0 to 100 scale, 0 = no effect, 100 = complete control
[17] = Preemergence, 500 g ai/ha, visual injury, 0 to 100 scale (0 no effect, 100 complete control), approx. ten days
[18] = 31 g ai/ha, postemergence, scale 0 to 100, 0 is no effect, 100 is complete control
[19] = postemergence, 100 is complete control
[20] = Postemergence, 125 g ai/ha, scale 0 to 100 (0 no effect, 100 complete control)
[21] = Postemergence, 250 g ai/ha, scale 0 to 100 (0 no effect, 100 complete control)

`COCCn1c(-c2ccco2)ncc(C(=O)C2=C(O)CCCC2=O)c1=O` [Compound 111] was tested, and the “Plant response rating, Barnyardgrass” value [1, 14] was 90, the “Plant response rating, Barnyardgrass” value [1, 15] was 90 and the “Plant response rating, Barnyardgrass” value [1, 16] was 30. For the same molecule, the “Plant response rating, Barnyardgrass” value [1, 17] was 90, the “Plant response rating, Pigweed” value [2, 14] was 100 and the “Plant response rating, Pigweed” value [2, 15] was 100. The “Plant response rating, Pigweed” value [2, 16] was 100, the “Plant response rating, Pigweed” value [2, 17] was 100 and the “Ryegrass, Italian plant response rating (0 to 100 scale)” value [3] was 0. For the same molecule, the “Plant response rating, Ryegrass, Italian” value ([3]; 125 g ai/ha) was 0, the “Plant response rating, Ryegrass, Italian” value ([3]; 250 g ai/ha) was 5 and the “Plant response rating, Surinam Grass” value ([4]; 125 g ai/ha) was 70. For the same molecule, the “Plant response rating, Surinam Grass” value ([4]; 250 g ai/ha) was 80, the “Plant response rating, Blackgrass” value [5, 18] was 5 and the “Blackgrass plant response rating (0 to 100 scale)” value [5, 19] was 5. For the same molecule, the “Plant response rating, Blackgrass” value [5, 20] was 25, the “Plant response rating, Blackgrass” value [5, 21] was 40 and the “Plant response rating, Bromegrass, Downy” value [6, 18] was 0. For the same molecule, the “Bromegrass, Downy plant response rating (0 to 100 scale)” value [6, 19] was 0, the “Plant response rating, Bromegrass, Downy” value [6, 20] was 5 and the “Plant response rating, Bromegrass, Downy” value [6, 21] was 10. The “Plant response rating, Goosegrass” value [7, 18] was 70, the “Goosegrass plant response rating (0 to 100 scale)” value [7, 19] was 70 and the “Plant response rating, Goosegrass” value [7, 20] was 85. The “Plant response rating, Goosegrass” value [7, 21] was 85, the “Plant response rating, Crabgrass, Large” value [8, 18] was 70 and the “Crabgrass, Large plant response rating (0 to 100 scale)” value [8, 19] was 75. For the same molecule, the “Plant response rating, Crabgrass, Large” value [8, 20] was 80, the “Plant response rating, Crabgrass, Large” value [8, 21] was 85 and the “Plant response rating, Morningglory” value [9, 18] was 100. The “Morningglory plant response rating (0 to 100 scale)” value [9, 19] was 100, the “Plant response rating, Morningglory” value [9, 20] was 100 and the “Plant response rating, Morningglory” value [9, 21] was 100. For the same molecule, the “Velvetleaf plant response rating (0 to 100 scale)” value [10] was 98, the “Plant response rating, Velvetleaf” value ([10]; 125 g ai/ha) was 100 and the “Plant response rating, Velvetleaf” value ([10]; 250 g ai/ha) was 100. The “Wheat plant response rating (0 to 100 scale)” value [11] was 0, the “Plant response rating, Wheat” value [11] was 5 and the “Plant response rating, Cupgrass, Woolly” value [12, 18] was 40. The “Cupgrass, Woolly plant response rating (0 to 100 scale)” value [12, 19] was 50, the “Plant response rating, Cupgrass, Woolly” value [12, 20] was 75 and the “Plant response rating, Cupgrass, Woolly” value [12, 21] was 75. The “Plant response rating, Nutsedge, Yellow” value [13, 18] was 65, the “Nutsedge, Yellow plant response rating (0 to 100 scale)” value [13, 19] was 75 and the “Plant response rating, Nutsedge, Yellow” value [13, 20] was 80. For the same molecule, the “Plant response rating, Nutsedge, Yellow” value [13, 21] was 85.
In the case of `O=C1CCCC(O)=C1C(=O)c1cnc(-c2cccs2)n(CC2CCCO2)c1=O` (stereo not shown) [Compound 109], the “Plant response rating, Barnyardgrass” value [1, 14] is reported as 80, the “Plant response rating, Barnyardgrass” value [1, 15] is reported as 90 and the “Plant response rating, Barnyardgrass” value [1, 16] is reported as 10. For the same molecule, the “Plant response rating, Barnyardgrass” value [1, 17] was 70, the “Plant response rating, Pigweed” value [2, 14] was 100 and the “Plant response rating, Pigweed” value [2, 15] was 100. The “Plant response rating, Pigweed” value [2, 16] was 90, the “Plant response rating, Pigweed” value [2, 17] was 100 and the “Ryegrass, Italian plant response rating (0 to 100 scale)” value [3] was 0. The “Plant response rating, Ryegrass, Italian” value ([3]; 125 g ai/ha) was 5, the “Plant response rating, Ryegrass, Italian” value ([3]; 250 g ai/ha) was 40 and the “Surinam Grass plant response rating (0 to 100 scale)” value ([4]; 62 g ai/ha, postemergence, 0 is no effect, 100 is complete control, 13 to 15 days) was 65. For the same molecule, the “Plant response rating, Surinam Grass” value ([4]; 125 g ai/ha) was 65, the “Plant response rating, Surinam Grass” value ([4]; 250 g ai/ha) was 80 and the “Plant response rating, Blackgrass” value [5, 18] was 0. The “Blackgrass plant response rating (0 to 100 scale)” value [5, 19] was 5, the “Plant response rating, Blackgrass” value [5, 20] was 40 and the “Plant response rating, Blackgrass” value [5, 21] was 50. The “Plant response rating, Bromegrass, Downy” value [6, 18] was 0, the “Bromegrass, Downy plant response rating (0 to 100 scale)” value [6, 19] was 0 and the “Plant response rating, Bromegrass, Downy” value [6, 20] was 5. The “Plant response rating, Bromegrass, Downy” value [6, 21] was 5, the “Plant response rating, Goosegrass” value [7, 18] was 65 and the “Goosegrass plant response rating (0 to 100 scale)” value [7, 19] was 75. For the same molecule, the “Plant response rating, Goosegrass” value [7, 20] was 80, the “Plant response rating, Goosegrass” value [7, 21] was 85 and the “Plant response rating, Crabgrass, Large” value [8, 18] was 65. The “Crabgrass, Large plant response rating (0 to 100 scale)” value [8, 19] was 75, the “Plant response rating, Crabgrass, Large” value [8, 20] was 75 and the “Plant response rating, Crabgrass, Large” value [8, 21] was 85. The “Plant response rating, Morningglory” value [9, 18] was 70, the “Morningglory plant response rating (0 to 100 scale)” value [9, 19] was 98 and the “Plant response rating, Morningglory” value [9, 20] was 100. For the same molecule, the “Plant response rating, Morningglory” value [9, 21] was 100, the “Velvetleaf plant response rating (0 to 100 scale)” value [10] was 98 and the “Plant response rating, Velvetleaf” value ([10]; 125 g ai/ha) was 100. For the same molecule, the “Plant response rating, Velvetleaf” value ([10]; 250 g ai/ha) was 100, the “Wheat plant response rating (0 to 100 scale)” value [11] was 5 and the “Plant response rating, Wheat” value [11] was 5. For the same molecule, the “Cupgrass, Woolly plant response rating (0 to 100 scale)” value [12, 19] was 60, the “Plant response rating, Cupgrass, Woolly” value [12, 20] was 60 and the “Plant response rating, Cupgrass, Woolly” value [12, 21] was 75. The “Nutsedge, Yellow plant response rating (0 to 100 scale)” value [13, 19] was 65, the “Plant response rating, Nutsedge, Yellow” value [13, 20] was 75 and the “Plant response rating, Nutsedge, Yellow” value [13, 21] was 80.
